In patent US20260262643A1, “HERBICIDAL BENZOXAZINES” (FMC CORPORATION, priority 2022, published 2026):

Key:
rice = test: Test D flooded paddy test; type: in vivo, Oryza sativa; details: 250 g ai/ha, applied to paddy water, visual rating after 13 to 14 days, scale 0 to 100 (0 no effect, 100 complete control)
Outline: (§1)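 Seedlings reached the 2-leaf stage, then pots were flooded to 3 cm over the soil surface. Compound was applied into the water, depth was maintained, and plants stayed in the greenhouse 13 to 14 days before visual scoring (0–100) relative to controls.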

sedge, umbrella = test: Test D flooded paddy test; type: in vivo, Cyperus difformis; details: 250 g ai/ha, applied to paddy water, visual rating after 13 to 14 days, scale 0 to 100 (0 no effect, 100 complete control)
Outline: as §1

corn [1] = test: Test C postemergence; type: in vivo, Zea mays; details: 10 days, 0 to 100 scale (0 no effect, 100 complete control)
Outline: (§2)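 Pre: seeds in loam/sand, directed soil spray. Post: 1–2 leaf plants, 2–10 cm. Cmpd in non-phytotoxic solvent + surfactant. Greenhouse 10 d; visual rating vs untreated, 0 = none, 100 = complete control.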

barnyardgrass [2] = test: Test C preemergence; type: in vivo, Echinochloa crusgalli
Outline: as §2

oat, wild [3] = test: Test C preemergence; type: in vivo, Avena fatua
Outline: as §2

barnyardgrass [4] = test: Test D flooded paddy test; type: in vivo, Echinochloa crus-galli; details: 250 g ai/ha, applied to paddy water, visual rating after 13 to 14 days, scale 0 to 100 (0 no effect, 100 complete control)
Outline: as §1

ryegrass, Italian [5] = test: Test C preemergence; type: in vivo, Lolium multiflorum
Outline: as §2

ryegrass, Italian [6] = test: Test C postemergence; type: in vivo, Lolium multiflorum; details: 10 days, 0 to 100 scale (0 no effect, 100 complete control)
Outline: as §2

blackgrass [7] = test: Test C postemergence; type: in vivo, Alopecurus myosuroides; details: 10 days, 0 to 100 scale (0 no effect, 100 complete control)
Outline: as §2

pigweed, palmer [8] = test: Test C postemergence; type: in vivo, Amaranthus palmeri; details: 10 days, 0 to 100 scale (0 no effect, 100 complete control)
Outline: as §2

kochia [9] = test: Test C postemergence; type: in vivo, Bassia scoparia; details: 10 days, 0 to 100 scale (0 no effect, 100 complete control)
Outline: as §2

pigweed, palmer [10] = test: Test C preemergence; type: in vivo, Amaranthus palmeri
Outline: as §2

kochia [11] = test: Test C preemergence; type: in vivo, Bassia scoparia
Outline: as §2

horseweed = test: Test C postemergence; type: in vivo, Erigeron canadensis; details: 10 days, 0 to 100 scale (0 no effect, 100 complete control)
Outline: as §2

ragweed [12] = test: Test C preemergence; type: in vivo, Ambrosia artemisiifolia
Outline: as §2

blackgrass [13] = test: Test C preemergence; type: in vivo, Alopecurus myosuroides
Outline: as §2

soybean [14] = test: Test C postemergence; type: in vivo, Glycine max; details: 10 days, 0 to 100 scale (0 no effect, 100 complete control)
Outline: as §2

wheat [15] = test: Test C postemergence; type: in vivo, Triticum aestivum; details: 10 days, 0 to 100 scale (0 no effect, 100 complete control)
Outline: as §2

green foxtail [16] = test: Test C preemergence; type: in vivo, Setaria viridis
Outline: as §2

ragweed [17] = test: Test C postemergence; type: in vivo, Ambrosia artemisiifolia; details: 10 days, 0 to 100 scale (0 no effect, 100 complete control)
Outline: as §2

ducksalad = test: Test D flooded paddy test; type: in vivo, Heteranthera limosa; details: 250 g ai/ha, applied to paddy water, visual rating after 13 to 14 days, scale 0 to 100 (0 no effect, 100 complete control)
Outline: as §1

corn [18] = test: Test C preemergence; type: in vivo, Zea mays
Outline: as §2

wheat [19] = test: Test C preemergence; type: in vivo, Triticum aestivum
Outline: as §2

galium = test: Test C postemergence; type: in vivo, Galium aparine; details: 10 days, 0 to 100 scale (0 no effect, 100 complete control)
Outline: as §2

soybean [20] = test: Test C preemergence; type: in vivo, Glycine max
Outline: as §2

barnyardgrass [21] = test: Test C postemergence; type: in vivo, Echinochloa crusgalli; details: 10 days, 0 to 100 scale (0 no effect, 100 complete control)
Outline: as §2

green foxtail [22] = test: Test C postemergence; type: in vivo, Setaria viridis; details: 10 days, 0 to 100 scale (0 no effect, 100 complete control)
Outline: as §2

oat, wild [23] = test: Test C postemergence; type: in vivo, Avena fatua; details: 10 days, 0 to 100 scale (0 no effect, 100 complete control)
Outline: as §2

[24] = 500 g ai/ha, preemergence, 0 to 100 scale (0 no effect, 100 complete control)
[25] = Preemergence, 125 g ai/ha, 0 to 100 scale, 0 no effect, 100 complete control

CC(=O)N(C)c1ncn(-c2cccc(C(=O)N3C[C@H](C)Oc4c(C)cccc43)c2)n1 [Compound 336]
30: Oat, Wild plant response rating (oat, wild [3]; [24]) | Plant response rating, Blackgrass (blackgrass [7]; Postemergence, 125 g ai/ha) | Plant response rating, Blackgrass (blackgrass [13]; [25]) | Soybean plant response rating (soybean [20]; [24])
10: Plant response rating, Pigweed, Palmer (pigweed, palmer [10]; [25]) | Plant response rating, Wheat (wheat [15]; Postemergence, 125 g ai/ha) | Plant response rating, Ragweed (ragweed [17]; 500 g ai/ha, postemergence) | Plant response rating, Barnyardgrass (barnyardgrass [21]; Postemergence, 125 g ai/ha) | Plant response rating, Oat, Wild (oat, wild [23]; Postemergence, 125 g ai/ha)
40: Blackgrass plant response rating (blackgrass [13]; [24]) | Plant response rating, Wheat (wheat [15]; 500 g ai/ha, postemergence) | Wheat plant response rating (wheat [19]; [24])
60: Plant response rating, Corn (corn [1]; 500 g ai/ha, postemergence) | Plant response rating, Kochia (kochia [9]; Postemergence, 125 g ai/ha) | Plant response rating, Galium (galium; Postemergence, 125 g ai/ha) | Plant response rating, Barnyardgrass (barnyardgrass [21]; 500 g ai/ha, postemergence) | Plant response rating, Foxtail, Green (green foxtail [22]; 500 g ai/ha, postemergence)
20: Plant response rating, Corn (corn [1]; Postemergence, 125 g ai/ha) | Plant response rating, Barnyardgrass (barnyardgrass [2]; [25]) | Plant response rating, Pigweed, Palmer (pigweed, palmer [8]; Postemergence, 125 g ai/ha) | Plant response rating, Ragweed (ragweed [17]; Postemergence, 125 g ai/ha) | Corn plant response rating (corn [18]; [24]) | Plant response rating, Foxtail, Green (green foxtail [22]; Postemergence, 125 g ai/ha)
25: Plant response rating, Ducksalad (Flood) (ducksalad)
80: Plant response rating, Ryegrass, Italian (ryegrass, Italian [6]; 500 g ai/ha, postemergence) | Plant response rating, Kochia (kochia [9]; 500 g ai/ha, postemergence) | Plant response rating, Soybean (soybean [14]; Postemergence, 125 g ai/ha) | Plant response rating, Foxtail, Green (green foxtail [16]; [25])
50: Plant response rating, Ryegrass, Italian (ryegrass, Italian [6]; Postemergence, 125 g ai/ha)
90: Ryegrass, Italian plant response rating (ryegrass, Italian [5]; [24]) | Plant response rating, Blackgrass (blackgrass [7]; 500 g ai/ha, postemergence) | Pigweed, Palmer plant response rating (pigweed, palmer [10]; [24]) | Kochia plant response rating (kochia [11]; [24]) | Plant response rating, Galium (galium; 500 g ai/ha, postemergence)
100: Barnyardgrass plant response rating (barnyardgrass [2]; [24]) | Plant response rating, Soybean (soybean [14]; 500 g ai/ha, postemergence) | Foxtail, Green plant response rating (green foxtail [16]; [24])
0: Plant response rating, Rice (Flood) (rice) | Plant response rating, Sedge, Umbrella (Flood) (sedge, umbrella) | Plant response rating, Oat, Wild (oat, wild [3]; [25]) | Plant response rating, Barnyardgrass (Flood) (barnyardgrass [4]) | Plant response rating, Kochia (kochia [11]; [25]) | Plant response rating, Horseweed (horseweed; 500 g ai/ha, postemergence) | Plant response rating, Horseweed (horseweed; Postemergence, 125 g ai/ha) | Ragweed plant response rating (ragweed [12]; [24]) | Plant response rating, Ragweed (ragweed [12]; [25]) | Plant response rating, Corn (corn [18]; [25]) | Plant response rating, Wheat (wheat [19]; [25]) | Plant response rating, Soybean (soybean [20]; [25])
70: Plant response rating, Ryegrass, Italian (ryegrass, Italian [5]; [25]) | Plant response rating, Pigweed, Palmer (pigweed, palmer [8]; 500 g ai/ha, postemergence) | Plant response rating, Oat, Wild (oat, wild [23]; 500 g ai/ha, postemergence)
